Source: patent US20240132431A1, “METHOD FOR ALKYLATING ACIDIC FUNCTIONAL GROUP” (Chugai Seiyaku Kabushiki Kaisha, priority 2021, published 2024)
Blank lines part the entries; values can stand above or below the compound they belong to.

Biological target: T1, Bcl-2 protein (Recombinant Human Bcl-2 Protein) (Homo sapiens, UniProt P10415)
T1 construct: purchased Novus NBP2-34889
Test: Binding evaluation of mixture library compounds to Bcl-2 using AS-MS (affinity selection mass spectrometry)
Conditions: for ASMS ratio (%) n = 1: replicate n = 1; for ASMS ratio (%) n = 1 / ASMS ratio (%) n = 2: ASMS Ratio(%)=(A−C)/B×100; for ASMS ratio (%) n = 2: replicate n = 2
How it was run: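 Affinity selection MS: Bcl-2 20 μM + 1200-cpd mixture, […]/cpd, Tris pH 7.4 buffer w/ Tween-20, DTT; 1 h 23° C dark; P-2 spin SEC; MeCN/MeOH extraction; RP LC/MS. ASMS Ratio(%) = (A−C)/B×100.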

[1] = AS-MS on the mixture of 1200 library compounds
[2] = AS-MS, mixture of 1200 compounds, Bcl-2

T1 sequence (P10415 whole entry): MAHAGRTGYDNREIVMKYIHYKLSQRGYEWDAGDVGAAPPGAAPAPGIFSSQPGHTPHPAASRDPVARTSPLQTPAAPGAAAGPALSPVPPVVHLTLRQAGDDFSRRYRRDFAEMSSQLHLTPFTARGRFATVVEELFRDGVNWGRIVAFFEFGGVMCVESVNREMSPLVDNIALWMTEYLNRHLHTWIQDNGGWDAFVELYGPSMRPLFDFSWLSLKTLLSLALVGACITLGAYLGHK

Compound: CCOc1cncc(-c2csc(CN3CCN(c4ccc(C(=O)N(C)CC56CC7CC(CC(C7)C5)C6)cc4)CC3)c2)c1 [B3A068-01, N-(1-Adamantylmethyl)-4-[4-[[4-(5-ethoxypyridin-3-yl)thiophen-2-yl]methyl]piperazin-1-yl]-N-methylbenzamide]
ASMS ratio (%) n = 1 [1]: 1.4%
ASMS ratio (%) n = 2 [1]: −3.6%

Compound: CCOc1cncc(C#Cc2ccccc2CN2CCN(c3ccc(C(=O)NCC45CC6CC(CC(C6)C4)C5)nn3)CC2)c1 [B1A096-01, N-(1-Adamantylmethyl)-6-[4-[[2-[2-(5-ethoxypyridin-3-yl)ethynyl]phenyl]methyl]piperazin-1-yl]pyridazine-3-carboxamide]
ASMS ratio (%) n = 1 [2]: 0.0%
ASMS ratio (%) n = 2 [2]: 7.4%

Compound: CCOc1cncc(-c2ccc(C(=O)N3CCN(c4ccc(C(=O)NCC56CC7CC(CC(C7)C5)C6)cc4)CC3)cc2C)c1 [B1A026-01, N-(1-Adamantylmethyl)-4-[4-[4-(5-ethoxypyridin-3-yl)-3-methylbenzoyl]piperazin-1-yl]benzamide]
ASMS ratio (%) n = 1 [2]: 3.0%
ASMS ratio (%) n = 2 [2]: −2.9%

Compound: CCOc1cccc(-c2cnn(-c3cc(C(=O)N4CCN(c5ccc(C(=O)N(C)CC67CC8CC(CC(C8)C6)C7)cc5)CC4)cc(C(F)(F)F)c3)c2)c1 [B3A043-01, N-(1-Adamantylmethyl)-4-[4-[3-[4-(3-ethoxyphenyl)pyrazol-1-yl]-5-(trifluoromethyl)benzoyl]piperazin-1-yl]-N-methylbenzamide]
ASMS ratio (%) n = 1 [1]: 0.5%
ASMS ratio (%) n = 2 [1]: −0.3%

Compound: 6-[4-[4-(5-Ethoxypyridin-3-yl)-3-fluorobenzoyl]piperazin-1-yl]-N-propylpyridazine-3-carboxamide [B1M088-01]
ASMS ratio (%) n = 1 [1]: 0.0%
ASMS ratio (%) n = 2 [1]: 0.0%

Compound: CCOc1cccc(-c2ccc(CN3CCN(c4ccc(C(=O)N(C)CC56CC7CC(CC(C7)C5)C6)cc4)CC3)c(OC)c2)c1 [B3A053-01, N-(1-Adamantylmethyl)-4-[4-[[4-(3-ethoxyphenyl)-2-methoxyphenyl]methyl]piperazin-1-yl]-N-methylbenzamide]
ASMS ratio (%) n = 1 [1]: 12.5%
ASMS ratio (%) n = 2 [1]: 9.9%

Compound: CCOc1cccc(-c2cc(CN3CCN(c4ccc(C(=O)Nc5ccc(OC)cc5)cc4)CC3)cc(OC(F)(F)F)c2)c1 [B1O063-01, 4-[4-[[3-(3-Ethoxyphenyl)-5-(trifluoromethoxy)phenyl]methyl]piperazin-1-yl]-N-(4-methoxyphenyl)benzamide]
ASMS ratio (%) n = 1 [1]: 3.5%
ASMS ratio (%) n = 2 [1]: −4.1%

Compound: CCOc1cccc(-c2cc(CN3CCN(c4ccc(C(=O)N(C)CC56CC7CC(CC(C7)C5)C6)cc4)CC3)cc(OC(C)C)c2)c1 [B3A057-01, N-(1-Adamantylmethyl)-4-[4-[[3-(3-ethoxyphenyl)-5-propan-2-yloxyphenyl]methyl]piperazin-1-yl]-N-methylbenzamide]
ASMS ratio (%) n = 1 [1]: 6.3%
ASMS ratio (%) n = 2 [1]: 2.5%

Compound: CCOc1cccc(-c2cc(CN3CCN(c4ccc(C(=O)N(CC)CC)cc4)CC3)cc(OCC)c2)c1 [B4J055-01, 4-[4-[[3-Ethoxy-5-(3-ethoxyphenyl)phenyl]methyl]piperazin-1-yl]-N,N-diethylbenzamide]
ASMS ratio (%) n = 1 [1]: −0.7%
ASMS ratio (%) n = 2 [1]: 1.4%

Compound: CCOc1cncc(-c2csc(C(=O)N3CCN(c4ccc(C(=O)N(CC)CC)nn4)CC3)c2)c1 [B4J002-01, 6-[4-[4-(5-Ethoxypyridin-3-yl)thiophene-2-carbonyl]piperazin-1-yl]-N,N-diethylpyridazine-3-carboxamide]
ASMS ratio (%) n = 1 [1]: −2.7%
ASMS ratio (%) n = 2 [1]: 2.1%

Other lines, results leading:

ASMS ratio (%) n = 1 (AS-MS, mixture library, Bcl-2): 1.5%
ASMS ratio (%) n = 2 (AS-MS, mixture library, Bcl-2): 0.0%
Compound: CCOc1cccc(C#Cc2ccccc2CN2CCN(c3ccc(C(=O)N(CC)CC)nn3)CC2)c1 [B4J095-01, 6-[4-[[2-[2-(3-Ethoxyphenyl)ethynyl]phenyl]methyl]piperazin-1-yl]-N,N-diethylpyridazine-3-carboxamide]

ASMS ratio (%) n = 1 (AS-MS, mixture library, Bcl-2): 2.6%
ASMS ratio (%) n = 2 (AS-MS, mixture library, Bcl-2): 0.2%
Compound: CCOc1cccc(C#Cc2cc(C(=O)N3CCN(c4ccc(C(=O)NS(=O)(=O)c5ccc(NCCSc6ccccc6)c([N+](=O)[O-])c5)cc4)CC3)cc(C(F)(F)F)c2)c1 [B2Q041-01, 4-[4-[3-[2-(3-Ethoxyphenyl)ethynyl]-5-(trifluoromethyl)benzoyl]piperazin-1-yl]-N-[3-nitro-4-(2-phenylsulfanylethylamino)phenyl]sulfonylbenzamide]

ASMS ratio (%) (n = 2): 0.0%
Compound: CCOc1cncc(-c2cc(OC)c(CN3CCN(c4ccc(C(=O)NS(=O)(=O)C(C)(C)C)cc4)CC3)c(OC)c2)c1 [B2L060-01, N-tert-Butylsulfonyl-4-[4-[[4-(5-ethoxypyridin-3-yl)-2,6-dimethoxyphenyl]methyl]piperazin-1-yl]benzamide]

ASMS ratio (%) n = 1 [2]: 7.4%
ASMS ratio (%) n = 2 [2]: −16.1%
Compound: CCOc1cccc(-c2ccc(C(=O)N3CCN(c4ccc(C(=O)NCC56CC7CC(CC(C7)C5)C6)cc4)CC3)cc2C)c1 [B1A025-01, N-(1-Adamantylmethyl)-4-[4-[4-(3-ethoxyphenyl)-3-methylbenzoyl]piperazin-1-yl]benzamide]

ASMS ratio (%) n = 1 [1]: 0.0%
ASMS ratio (%) n = 2 [1]: 0.0%
Compound: CCOc1cncc(C#Cc2ccccc2C(=O)N2CCN(c3ccc(C(=O)N(CC)CC)nn3)CC2)c1 [B4J008-01, 6-[4-[2-[2-(5-Ethoxypyridin-3-yl)ethynyl]benzoyl]piperazin-1-yl]-N,N-diethylpyridazine-3-carboxamide]

ASMS ratio (%) n = 1 [2]: 2.3%
ASMS ratio (%) n = 2 [2]: −0.6%
Compound: CCOc1cccc(-c2ccccc2CCC(=O)N2CCN(c3ccc(C(=O)NCC(F)(F)F)cc3)CC2)c1 [B1K033-01, 4-[4-[3-[2-(3-Ethoxyphenyl)phenyl]propanoyl]piperazin-1-yl]-N-(2,2,2-trifluoroethyl)benzamide]

ASMS ratio (%) (n = 1): 0.0%
ASMS ratio (%) (n = 2): −1.2%
Compound: CCOc1cncc(-c2ccccc2CN2CCN(c3ccc(C(=O)NS(=O)(=O)CCC(F)(F)F)cc3)CC2)c1 [B2N046-01, 4-[4-[[2-(5-Ethoxypyridin-3-yl)phenyl]methyl]piperazin-1-yl]-N-(3,3,3-trifluoropropylsulfonyl)benzamide]

ASMS ratio (%) n = 1 [2]: −0.3%
ASMS ratio (%) n = 2 [2]: 0.0%
Compound: CCOc1cncc(-c2ccc(C(=O)N3CCN(c4ccc(C(=O)NCC(F)(F)F)nn4)CC3)c3ccccc23)c1 [B1K014-01, 6-[4-[4-(5-Ethoxypyridin-3-yl)naphthalene-1-carbonyl]piperazin-1-yl]-N-(2,2,2-trifluoroethyl)pyridazine-3-carboxamide]

ASMS ratio (%) (n = 1): 0.0%
Compound: CCOc1cccc(C#Cc2ccccc2C(=O)N2CCN(c3ccc(C(=O)NS(=O)(=O)C(C)(C)C)cc3)CC2)c1 [B2L029-01, N-tert-Butylsulfonyl-4-[4-[2-[2-(3-ethoxyphenyl)ethynyl]benzoyl]piperazin-1-yl]benzamide]

ASMS ratio (%) n = 1 (AS-MS, mixture library, Bcl-2): 0.0%
ASMS ratio (%) n = 2 (AS-MS, mixture library, Bcl-2): 0.0%
Compound: CCOc1cccc(C#Cc2ccccc2C(=O)N2CCN(c3ccc(C(=O)NS(C)(=O)=O)cc3)CC2)c1 [B2I029-01, 4-[4-[2-[2-(3-Ethoxyphenyl)ethynyl]benzoyl]piperazin-1-yl]-N-methylsulfonylbenzamide]

ASMS ratio (%) (n = 1): 0.0%
ASMS ratio (%) (n = 2): 0.0%
Compound: CCOc1cncc(-c2ccc(C(C)N3CCN(c4ccc(C(=O)NS(=O)(=O)CCC(F)(F)F)cc4)CC3)c(F)c2)c1 (stereo not shown) [B2N100-01, 4-[4-[1-[4-(5-Ethoxypyridin-3-yl)-2-fluorophenyl]ethyl]piperazin-1-yl]-N-(3,3,3-trifluoropropylsulfonyl)benzamide]
